Values joined by “and” are separate entries in the source; they are usually repeats but may differ in a detail not shown here. Equal values may be shown once. Records with an inconclusive call do not appear.
Test system: BDF1 mice, M5076 sarcoma s.c., survival/tumor T/C
Experiment: NCI In Vivo Anticancer Drug Screen. Data for tumor model Sarcoma M5076 (subcutaneous) in B6D2F1 (BDF1) mice
Experimental: The antitumor activity of compounds was measured in mice bearing transplantable tumors. Survival or tumor size were measured and the results are expressed as the measurement made in the treated group (T) divided by the measurement made in the vehicle treated control group (C). The tumor model used in this assay is Sarcoma M5076 (subcutaneous) in B6D2F1 (BDF1) mice

[1] = endpoint: median survival time, dose: 50.0 mg/kg/injection, schedule: Q01DX009 (ip), vehicle: saline with Tween-80, higher = longer survival
[2] = endpoint: median survival time, dose: 100.0 mg/kg/injection, schedule: Q01DX009 (ip), vehicle: saline with Tween-80, higher = longer survival
[3] = endpoint: median survival time, dose: 200.0 mg/kg/injection, schedule: Q01DX009 (ip), vehicle: saline with Tween-80, higher = longer survival
[4] = endpoint: median tumor weight (est.), dose: 50.0 mg/kg/injection, schedule: Q01DX009 (ip), vehicle: saline with Tween-80, higher = larger tumour
[5] = endpoint: median tumor weight (est.), dose: 100.0 mg/kg/injection, schedule: Q01DX009 (ip), vehicle: saline with Tween-80, higher = larger tumour
[6] = endpoint: median tumor weight (est.), dose: 200.0 mg/kg/injection, schedule: Q01DX009 (ip), vehicle: saline with Tween-80, higher = larger tumour

CCCNC(=O)ON1C(=O)C2C3C=CC(C3)C2C1=O (stereo not drawn)
T/C (endpoint: median survival time, dose: 3.12 mg/kg/injection, schedule: Q01DX009 (ip), vehicle: saline with Tween-80, higher = longer survival): 98 % of control
T/C (endpoint: median survival time, dose: 6.25 mg/kg/injection, schedule: Q01DX009 (ip), vehicle: saline with Tween-80, higher = longer survival): 95 % of control
T/C (endpoint: median survival time, dose: 12.5 mg/kg/injection, schedule: Q01DX009 (ip), vehicle: saline with Tween-80, higher = longer survival): 103 % of control
T/C (endpoint: median tumor weight (est.), dose: 3.12 mg/kg/injection, schedule: Q01DX009 (ip), vehicle: saline with Tween-80, higher = larger tumour): 93 % of control
T/C (endpoint: median tumor weight (est.), dose: 6.25 mg/kg/injection, schedule: Q01DX009 (ip), vehicle: saline with Tween-80, higher = larger tumour): 107 % of control

NC(=O)c1cc(N2CC2)c([N+](=O)[O-])cc1[N+](=O)[O-]
T/C (endpoint: median survival time, dose: 64.0 mg/kg/injection, schedule: Q01DX001 (ip), vehicle: saline, higher = longer survival): 103 % of control (2×) and 97 % of control
T/C (endpoint: median survival time, dose: 80.0 mg/kg/injection, schedule: Q01DX001 (ip), vehicle: saline, higher = longer survival): 95 % of control
T/C (endpoint: median survival time, dose: 100.0 mg/kg/injection, schedule: Q01DX001 (ip), vehicle: saline, higher = longer survival): 106 % of control and 110 % of control and 95 % of control

CN(N=O)C(=O)N[C@@H](C=O)[C@@H](O)[C@H](O)[C@H](O)CO
T/C (endpoint: mean tumor weight, dose: 9.38 mg/kg/injection, schedule: Q02DX011 (ip), vehicle: other, higher = larger tumour): 64 % of control
T/C (endpoint: mean tumor weight, dose: 18.75 mg/kg/injection, schedule: Q02DX011 (ip), vehicle: other, higher = larger tumour): 37 % of control and 56 % of control
T/C (endpoint: mean tumor weight, dose: 37.5 mg/kg/injection, schedule: Q02DX011 (ip), vehicle: other, higher = larger tumour): 11 % of control and 15 % of control
T/C (endpoint: mean tumor weight, dose: 75.0 mg/kg/injection, schedule: Q02DX011 (ip), vehicle: other, higher = larger tumour): 1 % of control
T/C (endpoint: median tumor weight (est.), dose: 9.38 mg/kg/injection, schedule: Q02DX011 (ip), vehicle: other, higher = larger tumour): 45 % of control
T/C (endpoint: median tumor weight (est.), dose: 18.75 mg/kg/injection, schedule: Q02DX011 (ip), vehicle: other, higher = larger tumour): 39 % of control and 60 % of control
T/C (endpoint: median tumor weight (est.), dose: 37.5 mg/kg/injection, schedule: Q02DX011 (ip), vehicle: other, higher = larger tumour): 10 % of control and 34 % of control

CNNCc1ccc(C(=O)NC(C)C)cc1
T/C (endpoint: median survival time, dose: 44.0 mg/kg/injection, schedule: Q04DX006 (ip), vehicle: saline, higher = longer survival): 118 % of control
T/C (endpoint: median survival time, dose: 88.0 mg/kg/injection, schedule: Q02DX033 (ip), vehicle: saline, higher = longer survival): 214 % of control
T/C (endpoint: median survival time, dose: 88.0 mg/kg/injection, schedule: Q04DX006 (ip), vehicle: saline, higher = longer survival): 151 % of control
T/C (endpoint: median survival time, dose: 176.0 mg/kg/injection, schedule: Q02DX033 (ip), vehicle: saline, higher = longer survival): 92 % of control
T/C (endpoint: median survival time, dose: 176.0 mg/kg/injection, schedule: Q04DX006 (ip), vehicle: saline, higher = longer survival): 216 % of control
T/C (endpoint: median survival time, dose: 352.0 mg/kg/injection, schedule: Q04DX006 (ip), vehicle: saline, higher = longer survival): 179 % of control

O=NN(CCCl)C(=O)NC1CCCCC1
T/C (endpoint: median survival time, dose: 2.0 mg/kg/injection, schedule: Q04DX006 (ip), vehicle: saline with Tween-80, higher = longer survival): 117 % of control
T/C (endpoint: median survival time, dose: 3.0 mg/kg/injection, schedule: Q01DX009 (ip), vehicle: Klucel (hydroxypropylcellulose) (HPC), higher = longer survival): 168 % of control
T/C (endpoint: median survival time, dose: 4.0 mg/kg/injection, schedule: Q02DX033 (ip), vehicle: saline with Tween-80, higher = longer survival): 250 % of control
T/C (endpoint: median survival time, dose: 4.0 mg/kg/injection, schedule: Q04DX006 (ip), vehicle: saline with Tween-80, higher = longer survival): 120 % of control
T/C (endpoint: median survival time, dose: 6.0 mg/kg/injection, schedule: Q01DX009 (ip), vehicle: Klucel (hydroxypropylcellulose) (HPC), higher = longer survival): 215 % of control
T/C (endpoint: median survival time, dose: 8.0 mg/kg/injection, schedule: Q02DX033 (ip), vehicle: saline with Tween-80, higher = longer survival): 255 % of control
T/C (endpoint: median survival time, dose: 8.0 mg/kg/injection, schedule: Q04DX006 (ip), vehicle: saline with Tween-80, higher = longer survival): 183 % of control
T/C (endpoint: median survival time, dose: 12.0 mg/kg/injection, schedule: Q01DX009 (ip), vehicle: Klucel (hydroxypropylcellulose) (HPC), higher = longer survival): 215 % of control
T/C (endpoint: median survival time, dose: 16.0 mg/kg/injection, schedule: Q04DX006 (ip), vehicle: saline with Tween-80, higher = longer survival): 241 % of control
T/C (endpoint: median tumor weight (est.), dose: 1.5 mg/kg/injection, schedule: Q01DX009 (ip), vehicle: Klucel (hydroxypropylcellulose) (HPC), higher = larger tumour): 10 % of control

O=c1[nH]c(=O)n([C@H]2CCCO2)cc1F
T/C (endpoint: mean tumor weight, dose: 50.0 mg/kg/injection, schedule: Q02DX011 (ip), vehicle: alkali diluted with saline, higher = larger tumour): 150 % of control
T/C (endpoint: mean tumor weight, dose: 100.0 mg/kg/injection, schedule: Q02DX011 (ip), vehicle: alkali diluted with saline, higher = larger tumour): 93 % of control
T/C (endpoint: mean tumor weight, dose: 200.0 mg/kg/injection, schedule: Q02DX011 (ip), vehicle: alkali diluted with saline, higher = larger tumour): 74 % of control

COc1cc(/C=N/NC(=O)COCC(=O)N/N=C/c2ccc(O)cc2OC)ccc1O
T/C [1]: 94 % of control
T/C [2]: 86 % of control
T/C [3]: 91 % of control
T/C [4]: 116 % of control
T/C [5]: 122 % of control
T/C [6]: 122 % of control

O=C(O)C1(C(=O)O)CCC1.[NH2-].[NH2-].[Pt+2]
T/C (endpoint: median survival time, dose: 6.25 mg/kg/injection, schedule: Q02DX030 (ip), vehicle: water, higher = longer survival): 98 % of control
T/C (endpoint: median survival time, dose: 17.0 mg/kg/injection, schedule: Q01DX009 (ip), vehicle: other, higher = longer survival): 100 % of control
T/C (endpoint: median survival time, dose: 25.0 mg/kg/injection, schedule: Q01DX009 (ip), vehicle: other, higher = longer survival): 114 % of control
T/C (endpoint: median survival time, dose: 25.0 mg/kg/injection, schedule: Q02DX030 (ip), vehicle: water, higher = longer survival): 165 % of control
T/C (endpoint: median survival time, dose: 25.92 mg/kg/injection, schedule: Q04DX005 (ip), vehicle: water, higher = longer survival): 162 % of control
T/C (endpoint: median survival time, dose: 38.0 mg/kg/injection, schedule: Q01DX009 (ip), vehicle: other, higher = longer survival): 107 % of control
T/C (endpoint: median survival time, dose: 43.2 mg/kg/injection, schedule: Q04DX005 (ip), vehicle: water, higher = longer survival): 169 % of control
T/C (endpoint: median survival time, dose: 50.0 mg/kg/injection, schedule: Q02DX030 (ip), vehicle: water, higher = longer survival): 94 % of control
T/C (endpoint: median survival time, dose: 72.0 mg/kg/injection, schedule: Q04DX005 (ip), vehicle: water, higher = longer survival): 196 % of control
T/C (endpoint: median tumor weight (est.), dose: 15.6 mg/kg/injection, schedule: Q04DX005 (ip), vehicle: water, higher = larger tumour): 22 % of control
T/C (endpoint: median tumor weight (est.), dose: 25.92 mg/kg/injection, schedule: Q04DX005 (ip), vehicle: water, higher = larger tumour): 20 % of control

CC1(C)OC(C)(C)c2c1nnc(-c1cccc([N+](=O)[O-])c1)[n+]2[O-]
T/C [1]: 110 % of control
T/C [2]: 113 % of control
T/C [3]: 113 % of control
T/C [4]: 91 % of control
T/C [5]: 119 % of control
T/C [6]: 97 % of control

Nc1nc2c(c(=O)[nH]1)N(C=O)C(CNc1ccc(C(=O)N[C@@H](CCC(=O)O)C(=O)O)cc1)CN2 (stereo partly drawn)
T/C (endpoint: median survival time, dose: 50.0 mg/kg/injection, schedule: Q01DX009 (ip), vehicle: sodium bicarbonate, higher = longer survival): 101 % of control
T/C (endpoint: median survival time, dose: 100.0 mg/kg/injection, schedule: Q01DX009 (ip), vehicle: sodium bicarbonate, higher = longer survival): 96 % of control
T/C (endpoint: median survival time, dose: 200.0 mg/kg/injection, schedule: Q01DX009 (ip), vehicle: sodium bicarbonate, higher = longer survival): 101 % of control

COCC(O)Cn1ccnc1[N+](=O)[O-] (stereo not drawn)
T/C (endpoint: median survival time, dose: 600.0 mg/kg/injection, schedule: Q04DX003 (ip), vehicle: saline, higher = longer survival): 105 % of control and 106 % of control
T/C (endpoint: median survival time, dose: 668.0 mg/kg/injection, schedule: Q07DX002 (ip), vehicle: saline, higher = longer survival): 97 % of control
T/C (endpoint: median survival time, dose: 1000.0 mg/kg/injection, schedule: Q04DX003 (ip), vehicle: saline, higher = longer survival): 102 % of control
T/C (endpoint: median survival time, dose: 1000.0 mg/kg/injection, schedule: Q07DX002 (ip), vehicle: saline, higher = longer survival): 119 % of control

CCOC(=O)c1ccc(N2C(=O)OC(C)(C)C2=O)cc1
T/C [1]: 108 % of control
T/C [2]: 115 % of control
T/C [3]: 95 % of control
T/C [4]: 99 % of control
T/C [5]: 97 % of control
T/C [6]: 80 % of control

O=C1c2c(O)ccc(O)c2C(=O)c2c(NCCNCCO)ccc(NCCNCCO)c21
T/C (endpoint: median tumor weight (est.), dose: 0.25 mg/kg/injection, schedule: Q02DX011 (ip), vehicle: water, higher = larger tumour): 97 % of control
T/C (endpoint: median tumor weight (est.), dose: 1.0 mg/kg/injection, schedule: Q02DX011 (ip), vehicle: water, higher = larger tumour): 31 % of control and 38 % of control
T/C (endpoint: median tumor weight (est.), dose: 2.0 mg/kg/injection, schedule: Q02DX011 (ip), vehicle: water, higher = larger tumour): 4 % of control

CO[C@@]12[C@H](COC(N)=O)C3=C(C(=O)C(C)=C(N)C3=O)N1C[C@@H]1N[C@@H]12
T/C (endpoint: median survival time, dose: 0.38 mg/kg/injection, schedule: Q04DX006 (ip), vehicle: saline, higher = longer survival): 105 % of control
T/C (endpoint: median survival time, dose: 0.75 mg/kg/injection, schedule: Q02DX033 (ip), vehicle: saline, higher = longer survival): 154 % of control
T/C (endpoint: median survival time, dose: 0.75 mg/kg/injection, schedule: Q04DX006 (ip), vehicle: saline, higher = longer survival): 103 % of control
T/C (endpoint: median survival time, dose: 1.5 mg/kg/injection, schedule: Q02DX033 (ip), vehicle: saline, higher = longer survival): 92 % of control
T/C (endpoint: median survival time, dose: 3.0 mg/kg/injection, schedule: Q04DX006 (ip), vehicle: saline, higher = longer survival): 101 % of control
